According to patent US10513534B2, “2′-chloro nucleoside analogs for HCV infection” (priority 2012, dated 2019):
pEC50: −log10 of the molar value. Like-named read-outs stand apart in the source and are kept apart here.

Key:
[1] = target: HCV genotype 1b replicon; experiment: HCV replicon assay (Zluc luciferase); assay type: cell-based
Procedure: Huh-7-derived cell line (Zluc) that harbors an HCV genotype 1b replicon and a luciferase reporter gene was grown in Dulbecco's Modified Eagle Medium (DMEM) supplemented with 10% fetal bovine serum, 2 mM GlutaMAX, 1% MEM nonessential amino acids, 100 IU/mL penicillin, 100 μg/mL streptomycin, and 0.5 mg/mL Geneticin® (G418). For dose response testing the cells were seeded in 96-well plates at 7.5×10^3 cells per well in a volume of 50 μL, and incubated at 37° C./5% CO2. Drug solutions were made up freshly in Huh-7 media as 2× stocks. Ten additional 5-fold dilutions were prepared from these stocks in DMEM without G418. At least three hours after Zluc cells were seeded, drug treatment was initiated by adding 50 μL of drug dilutions to the plates in duplicate. Final concentrations of drug ranged from 100 μM to […]. Cells were then incubated at 37° C./5% CO2. Alternatively, compounds were tested at two concentrations (1 μM and 10 μM). […] For this, media was removed from the plates via gentle tapping. Fifty microliters of ONE-glo luciferase assay reagent was added to each well. The plates were shaken gently for 3 min at room temperature and luminescence was measured on a Victor^3 V 1420 multilabel counter (Perkin Elmer) with a 1 second read time using a 700 nm cut-off filter. The EC50 values were calculated from dose response curves from the resulting best-fit equations determined by Microsoft Excel and XLfit 4.1 software. When screening at two fixed concentrations, the results were expressed as % inhibition at 1 μM and 10 μM.

[2] = system: Zluc cells; experiment: Cytotoxicity evaluation, CellTiter-Blue Cell Viability Assay; conditions: Zluc cells, CellTiter-Blue
[3] = Liver triphosphate pharmacokinetics after single oral dose in CD-1 mice; assay type: in vivo; design: key: + ≤ 15; 15 < ++ ≤ 50; 50 < +++ ≤ 100; 100 < ++++; BLQ = below limit of quantitation; conditions: single oral dose 10 mg/kg in PEG 200;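 as to Ms Liver TP AUC: pmol·h/g liver normalized to a 1 µmol/kg dose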;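 as to Ms Liver TP Cmax: pmol/g liver normalized to a 1 µmol/kg dose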
Procedure: Internal standard solution was added to the homogenate followed by neutralization with 20% ammonium hydroxide solution and addition of 500 μL 1% formic acid. The tissue samples were extracted by weak anion exchange solid phase extraction (SPE). Post extraction, the eluates were evaporated under nitrogen, followed by reconstitution before injection onto the LC-MS/MS system.

[4] = Plasma nucleoside pharmacokinetics after single oral dose in CD-1 mice; assay type: in vivo; conditions: single oral dose 10 mg/kg in PEG 200;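 as to Ms Plasma nucleoside AUC: pmol·h/mL plasma normalized to a 1 µmol/kg dose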
Procedure: Plasma samples were analyzed for nucleoside by LC-MS/MS. The internal standard (IS) was either 2′-MeG-D3 or tiapride. For protein precipitation and extraction, each plasma sample (50 μL) was treated with 500 μL of 0.2% formic acid in acetonitrile and 20 μL of the internal standard working solution. After vortexing and centrifugation, 500 μL of the sample extracts were transferred to a new plate, dried under N2 at ˜28° C. and reconstituted with 75 μL of 0.2% FA in water. The extracts were chromatographed on an Aquasil C18 column using a gradient system of 0.2% formic acid in water and acetonitrile. The analytes were detected and quantified by tandem mass spectrometry in positive ion mode on an MDS Sciex API5000 equipped with a Turbo Ionspray® interface. The calibration range was 0.500 (LLOQ) to 200 ng/mL in mouse plasma.

[5] = Zluc cells, 72 hours; read-out: HCV Replicon EC50

Row | Structure (SMILES) | pEC50 [1, 5] | CC50 [2] | Ms Liver TP AUC [3] | Ms Liver TP Cmax [3] | Ms Plasma nucleoside AUC [4] | Ms Plasma nucleoside Cmax [4] | pEC50 ([1]; read-out: HCV Replicon EC50; Zluc cells, 72 hours)
1 | CC(C)OC(=O)C(C)NP(=O)(OCC1OC(n2cnc3c(=O)[nH]c(N)nc32)C(C)(Cl)C1O)Oc1ccccc1 (mixture of isomers) [Compound 21ii Mixture of P-Diastereoisomers] | < 5.00 | > 50 µM |  |  |  |  | 
2 | CCOc1nc(N)nc2c1ncn2[C@@H]1O[C@H](COP(=O)(N[C@@H](C)C(=O)OC(C)C)Oc2ccccc2)[C@@H](O)[C@@]1(C)Cl (single isomer, unassigned) [Compound 17ii Diastereomer 2] | 5.00 to 6.00 | > 50 µM | BLQ | BLQ |  |  | 
3 | CC(C)OC(=O)[C@H](C)NP(=O)(OC[C@H]1O[C@@H](n2cnc3c(=O)[nH]c(N)nc32)[C@](C)(Cl)[C@@H]1O)Oc1ccccc1 (single isomer, unassigned) [Compound 21ii Diastereomer 2] | < 5.00 | > 50 µM |  |  |  |  | 
4 | CC(C)(CO)C(=O)SCCOP(=O)(NCc1ccccc1)OC[C@H]1O[C@@H](n2ccc(=O)[nH]c2=O)[C@](C)(Cl)[C@@H]1O (single isomer, unassigned) [Compound 54 Diastereomer 1] |  |  | + (+ ≤ 150) | ++ (15 < ++ ≤ 50) | +++ (500 < +++ ≤ 1500) | +++ (50 < +++ ≤ 100) | 
5 | CC(C)(CO)C(=O)SCCOP(=O)(NCc1ccccc1)OC[C@H]1O[C@@H](n2ccc(=O)[nH]c2=O)[C@](C)(Cl)[C@@H]1O (single isomer, unassigned) [Compound 54 Single Diastereoisomer] | 5.00 to 6.00 | > 50 µM |  |  |  |  | 
6 | CCOC(=O)COP(=O)(OC[C@H]1O[C@@H](n2ccc(=O)[nH]c2=O)[C@](C)(Cl)[C@@H]1O)Oc1ccccc1 (single isomer, unassigned) [Compound 72 Diastereomer 2] |  |  |  |  |  |  | < 5.00
7 | CC(C)OC(=O)[C@H](C)NP(=O)(OC[C@H]1O[C@@H](n2cc(F)c3c(N)ncnc32)[C@](C)(Cl)[C@@H]1O)Oc1ccccc1 (single isomer, unassigned) [Compound 207ii Diastereomer 2] | < 5.00 | > 50 µM |  |  |  |  | 
8 | CC(C)OC(=O)[C@H](C)NP1(=O)OC[C@H]2O[C@@H](n3cnc4c(N)ncnc43)[C@](C)(Cl)[C@@H]2O1 (single isomer, unassigned; diastereoisomer 1) [Compound 77ii Diastereoisomer 1] | 5.00 to 6.00 | > 50 µM |  |  |  |  | 
9 | CC(COC(=O)C(C)C)NP1(=O)OCC2OC(n3cnc4c(N)ncnc43)C(C)(Cl)C2O1 (single isomer, unassigned; diastereoisomer 1) [Compound 95 Diastereoisomer 1] | 6.00 to 6.60 | > 50 µM |  |  |  |  | 
10 | CC(C)OC(=O)[C@H](C)NP1(=O)OC[C@H]2O[C@@H](n3cnc4c(N)ncnc43)[C@](C)(Cl)[C@@H]2O1 (single isomer, unassigned; diastereoisomer 2) [Compound 77ii Diastereoisomer 2] | 6.00 to 6.60 | > 50 µM |  |  |  |  | 
11 | CC(COC(=O)C(C)C)NP1(=O)OCC2OC(n3cnc4c(N)ncnc43)C(C)(Cl)C2O1 (single isomer, unassigned; diastereoisomer 2) [Compound 95 Diastereoisomer 2] | 6.00 to 6.60 | > 50 µM |  |  |  |  | 
12 | CC(C)OC(=O)[C@H](C)NP1(=O)OC[C@H]2O[C@@H](n3ccc(=O)[nH]c3=O)[C@](C)(Cl)[C@@H]2O1 (single isomer, unassigned; diastereomer 1) [Compound 38ii Diastereomer 1] |  |  | + (+ ≤ 150) | + (+ ≤ 15) | +++ (500 < +++ ≤ 1500) | +++ (50 < +++ ≤ 100) | 
13 | CC(C)OC(=O)[C@H](C)NP(=O)(OCCSC(=O)C(C)(C)C)OC[C@H]1O[C@@H](n2ccc(=O)[nH]c2=O)[C@](C)(Cl)[C@@H]1O (single isomer, unassigned; diastereomer 1) [Compound 43ii Diastereomer 1] | 6.00 to 6.60 | > 50 µM |  |  |  |  | 
14 | CC(C)OC(=O)[C@H](C)NP1(=O)OC[C@H]2O[C@@H](n3cnc4c(N)ncnc43)[C@](C)(Cl)[C@@H]2O1 (single isomer, unassigned; diastereomer 1) [Compound 77ii Diastereomer 1] |  |  | ++++ (1500 < ++++) | ++++ (100 < ++++) | + (+ ≤ 150) | + (+ ≤ 15) | 
15 | CC(C)C(=O)OC[C@H](C)NP1(=O)OC[C@H]2O[C@@H](n3cnc4c(N)ncnc43)[C@](C)(Cl)[C@@H]2O1 (single isomer, unassigned; diastereomer 1) [Compound 95i Diastereomer 1] |  |  | + (+ ≤ 150) | + (+ ≤ 15) | + (+ ≤ 150) | + (+ ≤ 15) | 
16 | CC(C)OC(=O)[C@@H](C)NP(=O)(OC[C@H]1O[C@@H](n2ccc(=O)[nH]c2=O)[C@](C)(Cl)[C@@H]1O)SC1CCCC1 (single isomer, unassigned; diastereomer 1) [Compound 206i Diastereomer 1] |  |  | +++ (500 < +++ ≤ 1500) | ++++ (100 < ++++) | +++ (500 < +++ ≤ 1500) | +++ (50 < +++ ≤ 100) | 
17 | CC(C)OC(=O)[C@H](C)NP1(=O)OC[C@H]2O[C@@H](n3ccc(=O)[nH]c3=O)[C@](C)(Cl)[C@@H]2O1 (single isomer, unassigned; diastereomer 2) [Compound 38ii Diastereomer 2] |  |  | +++ (500 < +++ ≤ 1500) | ++ (15 < ++ ≤ 50) | +++ (500 < +++ ≤ 1500) | ++++ (100 < ++++) | 
18 | CC(C)(CO)C(=O)SCCOP(=O)(NCc1ccccc1)OC[C@H]1O[C@@H](n2ccc(=O)[nH]c2=O)[C@](C)(Cl)[C@@H]1O (single isomer, unassigned; diastereomer 2) [Compound 54 Diastereomer 2] |  |  | + (+ ≤ 150) | + (+ ≤ 15) | +++ (500 < +++ ≤ 1500) | ++ (15 < ++ ≤ 50) | 
19 | CC(C)OC(=O)[C@H](C)NP1(=O)OC[C@H]2O[C@@H](n3cnc4c(N)ncnc43)[C@](C)(Cl)[C@@H]2O1 (single isomer, unassigned; diastereomer 2) [Compound 77ii Diastereomer 2] |  |  | ++++ (1500 < ++++) | ++++ (100 < ++++) | + (+ ≤ 150) | + (+ ≤ 15) | 
20 | CC(C)C(=O)OC[C@H](C)NP1(=O)OC[C@H]2O[C@@H](n3cnc4c(N)ncnc43)[C@](C)(Cl)[C@@H]2O1 (single isomer, unassigned; diastereomer 2) [Compound 95i Diastereomer 2] |  |  | ++ (150 < ++ ≤ 500) | + (+ ≤ 15) | + (+ ≤ 150) | + (+ ≤ 15) | 
21 | CC(C)OC(=O)[C@@H](C)NP(=O)(OC[C@H]1O[C@@H](n2ccc(=O)[nH]c2=O)[C@](C)(Cl)[C@@H]1O)SC1CCCC1 (single isomer, unassigned; diastereomer 2) [Compound 206i Diastereomer 2] |  |  | +++ (500 < +++ ≤ 1500) | +++ (50 < +++ ≤ 100) | +++ (500 < +++ ≤ 1500) | +++ (50 < +++ ≤ 100) | 
